“Also recorded” adds a separate entry of the source. Read-outs that look alike come from different tables or passages of the source. Bridge positions count the residues as written; N and C are the ends. Square brackets hold non-standard residues; d marks the D form. Primed or numbered codes have the meaning given here. Peptide text beside a SMILES is read from it. * marks the point of attachment. C20 diacid = O=C(O)CCCCCCCCCCCCCCCCCCC(=O)*; Hyp = O=C(O)[C@@H]1C[C@@H](O)CN1; Trx′ = not defined here; AEEA = NCCOCCOCC(=O)O
How the values were obtained:
[1] = Weight loss efficacy of derivatives in SD rats (Example 5); assay type: in vivo, SD (Sprague Dawley) rats; details: subcutaneous, 30 nmol/kg
From the text: SD (Sprague Dawley) rats weighing 200 g to 250 g were selected for this experimental study. Before the experiment, the rats arrived for at least 10 days to 14 days to adapt to the experimental environment. During this period, the rats were fed for two weeks in a reversed light/dark stage (meaning that the light was turned off during the day and turned on during the night) after arrival, and were fed separately in the first week of arrival to ensure accurate data and high test sensitivity, and the rats were free to obtain food and water during the whole adaptation period and experimental period. There were an experimental group [NT]5 and A6, and an experimental group B: B1, B2, B3, B4 and B5, with 5 to 8 rats in each treatment group of the derivative, and the rats in each group were subcutaneously administered with a derivative or a solvent by a dosage of 30 nmol/kg. The administration time of each group was recorded. After administration, the rats were put back into their cages in which the rats could get food and water. Food consumption and weight changes of the rats were recorded every 24 hours by online recording or manual recording. Weight and food intake changes of the SD rats in each group were as shown in FIG. 2A to FIG. 2D, Table 9 and Table 10.

[2] = Freeze-thaw stability of derivatives (freeze-thaw yield by liquid chromatography); assay type: physicochemical; details: for Dissolution property: appearance after dissolution at 0.2 mg/ml in 20 mM phosphate buffer solution (PB) (pH 7.0); for Freeze storage property: appearance after overnight storage at −20° C. and thawing to room temperature, 0.2 mg/ml in 20 mM PB (pH 7.0); for Freeze storage yield: concentration of polypeptide after freezing and thawing / concentration before, by liquid chromatography, −20° C. overnight
Method in brief: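 Lyophilised peptide derivative dissolved at 0.2 mg/ml in 20 mM phosphate buffer, pH 7.0, frozen overnight at −20° C, then thawed at room temperature. Peptide concentration before and after freeze-thaw measured by reversed-phase HPLC on centrifuged supernatant; yield = post-thaw/pre-thaw concentration.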

human amylin receptor = biological target: T1, human amylin receptor (Homo sapiens, UniProt O60896+P30988); test: Luciferase assay of amylin derivatives in amylin receptor/CRE-luc CHO cell line; assay type: cell-based; details: EC50, CHO-K1/Ga15/AMY3 CRE-luc cells, 24 hours incubation, F12 medium containing 10% FBS
T1 construct: host or cells: CHO-K1/Ga15/AMY3 cells, further stably transfected with a CRE-luciferase plasmid
T1 sequence (P30988 25-474): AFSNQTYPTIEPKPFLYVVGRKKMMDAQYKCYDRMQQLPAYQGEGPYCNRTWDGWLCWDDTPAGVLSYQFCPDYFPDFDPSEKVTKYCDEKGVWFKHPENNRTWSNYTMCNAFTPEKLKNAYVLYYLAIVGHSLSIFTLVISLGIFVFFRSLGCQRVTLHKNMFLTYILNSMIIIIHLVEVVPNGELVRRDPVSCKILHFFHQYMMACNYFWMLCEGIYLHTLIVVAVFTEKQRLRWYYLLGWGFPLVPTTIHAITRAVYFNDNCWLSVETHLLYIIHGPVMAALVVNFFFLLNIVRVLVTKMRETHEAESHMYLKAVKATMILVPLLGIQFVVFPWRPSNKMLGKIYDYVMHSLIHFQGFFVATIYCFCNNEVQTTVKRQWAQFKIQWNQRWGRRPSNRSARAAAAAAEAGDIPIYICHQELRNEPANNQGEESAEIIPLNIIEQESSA
T1 sequence (O60896 24-148 partner): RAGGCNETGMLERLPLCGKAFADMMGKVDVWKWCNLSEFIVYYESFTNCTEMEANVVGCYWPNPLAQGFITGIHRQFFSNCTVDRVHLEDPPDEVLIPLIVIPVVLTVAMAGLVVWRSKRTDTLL
Procedure: The experiment was intended to detect the activity or efficacy of the amylin derivatives on a human amylin receptor in vitro by luciferase assay.
50 μL of growth medium (F12 medium containing 10% FBS) was added into each well of a white 96-well plate, and the stably transfected amylin/CRE-lue CHO cells were inoculated into the white 96-well plate at a density of about 20,000 cells/well for activity determination.

[3] = Weight loss effect of dosage of derivatives in SD rats (Example 6); assay type: in vivo; details: subcutaneous
Procedure: SD rats obtained by the same method as in Example 5 were used in this experimental study. There were an experimental group C: C1 to C13, and an experimental group D: D1 to D7, with 5 to 8 rats in each group of the derivative test, and according to administration schemes as shown in Table 11 and Table 12, the rats in each group […] The administration time of each group was recorded. After administration, the rats were put back into their cages in which the rats could get food and water. Food consumption and weight changes of the rats were recorded every 24 hours by online recording or manual recording. Weight and cumulative food intake changes of the SD rats in each group were as shown in FIG. 3A to FIG. 3D, FIG. 4A to FIG. 4B, Table 11 and Table 12.

[4] = assay type: physicochemical; details: 40° C.
Procedure: The penicillin bottle after covering was placed in a stability test box at 40° C. Before testing, a sample was centrifuged at 10,000 rpm and 4° C. for 3 minutes, and a supernatant was taken and added into a liquid-phase sample injection bottle. The sample was detected by the liquid phase method in Example 3.

[5] = Study on fatty acid side chain of derivatives, weight reduction in SD rats (Example 7); assay type: in vivo; details: subcutaneous, 30 nmol/kg
From the text: SD rats obtained by the same method as in Example 5 were used in this experimental study. There were an experimental group E: for testing weight reduction effects of the compounds PD065 and PD187, and an experimental group F: for testing the compounds PD065, PD071, PD140, PD144, PD145, PD146 and PD147, with 5 to 8 rats in each group of the derivative test, and the rats in each group were subcutaneously administered with a derivative or a solvent by a dosage of 30 nmol/kg. The administration time of each group was recorded. After administration, the rats were put back into their cages in which food and water available for the rats were placed. Food consumption and weight changes of the rats were recorded every 24 hours by online recording or manual recording.

[6] = experimental group C, 10 nmol/kg
[7] = experimental group C, 30 nmol/kg
[8] = experimental group C, 100 nmol/kg
[9] = experimental group D, 10 nmol/kg
[10] = experimental group D, 30 nmol/kg
[11] = experimental group D, 100 nmol/kg

CC[C@H](C)[C@H](NC(=O)[C@@H]1CCCN1C(=O)CNC(=O)[C@H](Cc1ccccc1)NC(=O)[C@H](CC(N)=O)NC(=O)[C@H](CC(N)=O)NC(=O)[C@H](CO)NC(=O)[C@H](CO)NC(=O)[C@H](Cc1c[nH]cn1)NC(=O)[C@H](CCCNC(=N)N)NC(=O)[C@H](CC(C)C)NC(=O)[C@H](Cc1ccccc1)NC(=O)[C@H](CCC(=O)O)NC(=O)[C@H](C)NC(=O)[C@H](CC(C)C)NC(=O)[C@H](CCCNC(=N)N)NC(=O)[C@H](CCC(N)=O)NC(=O)[C@@H](NC(=O)[C@H](C)NC(=O)[C@@H]1CSSC[C@H](NC(=O)[C@H](CCCCN)NC(=O)CC[C@H](NC(=O)CCCCCCCCCCCCCCCCCCC(=O)O)C(=O)O)C(=O)N[C@@H](CC(N)=O)C(=O)N[C@@H]([C@@H](C)O)C(=O)N[C@@H](C)C(=O)N[C@@H]([C@@H](C)O)C(=O)N1)[C@@H](C)O)C(=O)N[C@@H](CC(C)C)C(=O)N1CCC[C@H]1C(=O)N1CCC[C@H]1C(=O)N[C@H](C(=O)N[C@@H](CC(N)=O)C(=O)N[C@H](C(=O)NCC(=O)N[C@@H](CO)C(=O)N[C@@H](CC(N)=O)C(=O)N[C@H](C(=O)N1CCC[C@H]1C(N)=O)[C@@H](C)O)C(C)C)[C@@H](C)O [PD065, Cagrilintide]
Weight change rate at 48th hour ([1]; experimental group A): −6.13
Weight change rate at 48th hour ([1]; experimental group B): −6.74
Dissolution property [2]: Clear
Freeze storage property [2]: Clear
Freeze storage yield [2]: 93.44%
EC50 (human amylin receptor): 0.038 nM
Cumulative food intake at 72nd hour [3, 6]: 78.31 g
Weight change rate at 72nd hour [3, 6]: 1.59%
Cumulative food intake at 72nd hour [3, 7]: 60.22 g
Weight change rate at 72nd hour [3, 7]: 0.46%
Cumulative food intake at 72nd hour [3, 8]: 44.41 g
Weight change rate at 72nd hour [3, 8]: −6.61%
Cumulative food intake at 72nd hour [3, 9]: 64.27 g
Weight change rate at 72nd hour [3, 9]: 5.95%
Cumulative food intake at 72nd hour [3, 10]: 48.00 g
Weight change rate at 72nd hour [3, 10]: 2.81%
Cumulative food intake at 72nd hour [3, 11]: 33.89 g
Weight change rate at 72nd hour [3, 11]: −3.81%
Decrease percentage of protein concentration ([4]; pH about 7.4, 0 d): 0.00%
Protein concentration ([4]; pH about 7.4, 0 d): 0.81 mg/mL
Decrease percentage of protein concentration ([4]; pH about 7.4, 7 d): 22.35%
Protein concentration ([4]; pH about 7.4, 7 d): 0.63 mg/mL
Decrease percentage of protein concentration ([4]; pH about 7.4, 15 d): 46.78%
Protein concentration ([4]; pH about 7.4, 15 d): 0.43 mg/mL

CC[C@H](C)[C@H](NC(=O)[C@@H]1CCCN1C(=O)[C@H](CCCCN)NC(=O)[C@H](CC(C)C)NC(=O)[C@H](CC(N)=O)NC(=O)[C@H](CC(N)=O)NC(=O)[C@H](CO)NC(=O)[C@H](CO)NC(=O)[C@H](Cc1c[nH]cn1)NC(=O)[C@H](CCCNC(=N)N)NC(=O)[C@H](CC(C)C)NC(=O)[C@H](Cc1ccccc1)NC(=O)[C@H](CC(=O)O)NC(=O)[C@H](C)NC(=O)[C@H](CC(C)C)NC(=O)[C@H](CCCNC(=N)N)NC(=O)[C@H](CCC(N)=O)NC(=O)[C@@H](NC(=O)[C@H](C)NC(=O)[C@@H]1CSSC[C@H](NC(=O)[C@H](CCCCN)NC(=O)COCCOCCNC(=O)COCCOCCNC(=O)CCCCCCCCCCCCCCCCCCC(=O)O)C(=O)N[C@@H](CC(N)=O)C(=O)N[C@@H]([C@@H](C)O)C(=O)N[C@@H](C)C(=O)N[C@@H]([C@@H](C)O)C(=O)N1)[C@@H](C)O)C(=O)N[C@@H](CC(C)C)C(=O)N1CCC[C@H]1C(=O)N1CCC[C@H]1C(=O)N[C@H](C(=O)N[C@@H](CC(N)=O)C(=O)N[C@H](C(=O)NCC(=O)N[C@@H](CO)C(=O)N[C@@H](CC(N)=O)C(=O)N[C@H](C(=O)N1C[C@H](O)C[C@H]1C(N)=O)[C@@H](C)O)C(C)C)[C@@H](C)O [PD187] ({C20 diacid-AEEA-AEEA}-KCNTATCATQRLADFLRHSSNNLKPILPPTNVGSNT[Hyp]-NH2; disulfide 2-7 (inferred))
EC50 (human amylin receptor): 0.016 nM
activity (weight reduction effect) compared with PD065 [5]: better than that of the PD065; also recorded: better weight reduction effect

PD146: KCNTATCATQRLADFLRHSSNNLKPILPPTNVGSNT-trans-Hyp-NH2; N-terminal; Trx + C20 diacid ({C20 diacid-Trx′}-KCNTATCATQRLADFLRHSSNNLKPILPPTNVGSNT-{trans‑Hyp-NH2}; disulfide 2-7 (inferred); reading uncertain; also: printed as KCNTATCATQRLADFLRHSSNNLKPILPPTNVGSNT-trans-Hyp-NH2)
Dissolution property [2]: Clear
Freeze storage property [2]: Clear
Freeze storage yield [2]: 101.09%
activity (weight reduction effect) compared with PD065 [5]: better than that of the PD065
